As usually defined, the IC50 is the concentration that gives 50% inhibition. The low end stands for inhibition by little substance, the high end for a need for much substance.

IC50 data for four molecules are collected here from article PMC12507699, “SLC45A4 is a pain gene encoding a neuronal polyamine transporter” (Nature, 2025).

For test [1], the target named is T1, SLC45A4 (Homo sapiens, UniProt Q5BKX6).
T1 sequence (Q5BKX6 1-768): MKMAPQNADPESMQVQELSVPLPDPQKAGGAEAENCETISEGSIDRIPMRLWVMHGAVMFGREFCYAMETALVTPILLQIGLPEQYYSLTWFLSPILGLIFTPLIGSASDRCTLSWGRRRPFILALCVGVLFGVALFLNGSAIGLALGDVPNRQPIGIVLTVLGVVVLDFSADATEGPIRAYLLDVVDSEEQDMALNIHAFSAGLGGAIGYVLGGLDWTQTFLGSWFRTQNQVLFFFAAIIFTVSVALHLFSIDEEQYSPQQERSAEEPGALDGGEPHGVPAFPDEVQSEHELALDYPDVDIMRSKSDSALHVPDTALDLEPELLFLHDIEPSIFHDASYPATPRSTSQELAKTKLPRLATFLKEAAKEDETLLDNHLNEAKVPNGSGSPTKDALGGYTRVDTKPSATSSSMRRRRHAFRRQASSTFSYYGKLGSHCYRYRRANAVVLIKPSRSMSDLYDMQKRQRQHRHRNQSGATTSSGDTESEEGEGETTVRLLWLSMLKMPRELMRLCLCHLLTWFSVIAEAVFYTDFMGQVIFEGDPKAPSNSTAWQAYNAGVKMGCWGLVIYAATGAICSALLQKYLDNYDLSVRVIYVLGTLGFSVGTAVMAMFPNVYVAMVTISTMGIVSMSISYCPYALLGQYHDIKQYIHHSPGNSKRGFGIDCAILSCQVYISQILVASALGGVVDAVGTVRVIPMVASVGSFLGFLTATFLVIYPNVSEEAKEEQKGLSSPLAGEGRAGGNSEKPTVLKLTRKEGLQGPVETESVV
The test can be described thus: competition of […]-SPD uptake in Neuro-2A cells overexpressing SLC45A4; also nanoDSF on purified protein. More on the design: full-length human SLC45A4. Type of test: cell-based.

Test [2] addresses T1, SLC45A4. The test can be described thus: […]-SPD uptake and homologous competition in Neuro-2A cells overexpressing SLC45A4; also nanoDSF destabilization of purified protein in detergent and nanodiscs. Type of test: cell-based. Further details: full-length human SLC45A4. (In general: Differential scanning fluorimetry follows unfolding on heating by fluorescence.)
The target of test [3] is T1, SLC45A4. The experiment in a line: cell-based.

SMILES strings stand for the structures.

Regarding `NCCCCCN` [Cad, cadaverine], the IC50 in test [1] was 67 µM.

The molecule `NCCCCN` [Put, putrescine] came in with an IC50 in test [1] of 74 µM. The molecule `NCCCCNCCCN` [SPD, spermidine] came in with an IC50 in test [2] of 123 µM.

Molecule `NCCCNCCCCNCCCN` [Spm, spermine] returned an IC50 in test [3] of 240 µM.
